# Test results taken from patent publication EP4572800B1, “TETRAZINES WITH IMPROVED PROPERTIES” (Tagworks Pharmaceuticals B.V., priority 2023, dated 2024).
# What was measured:
# [1] = target: acetyl cholinesterase (ACES) (Homo sapiens, UniProt P22303); test: Enzyme inhibition study, ACES; format: biochemical, humans; details: for % ACES inhibition: final concentration of tetrazine 10 µM, human ACES
# Procedure: (§1) In this Example, the inhibition of several physiologically relevant target proteins (viz. enzymes and a transporter) by tetrazines were tested in vitro. The enzymes tested were cyclooxygenase (COX-1), acetyl cholinesterase (ACES), and monoamine oxidase (MAO-B), and the tested transporter was calcium channel L-type, dihydropyridine. COX-1, ACES, and MAO-B from humans was used, while calcium channel L-type, dihydropyridine from rats was used. Standard literature protocols were used, and relevant controls were included to ensure the validity of the results. The target proteins were mixed with tetrazine 2.1 (reference), 2.4, 2.5, 2.7, or 2.10 (final concentration of tetrazine 10 µM) in appropriate buffers. The final concentrations for the respective target proteins depended on the standard protocol used, but for each individual target protein this concentration was the same for the different tetrazines tested. After an appropriate incubation time at an appropriate temperature, the enzymatic activity of the enzyme or the ligand binding in case of the transporter was tested in accordance with standard procedures from literature. From this remaining enzymatic activity or ligand binding, the percentage of inhibition was determined.
# [2] = target: T1, monoamine oxidase (MAO-B) (Homo sapiens, UniProt P27338); test: Enzyme inhibition study, MAO-B; format: biochemical, humans; details: for % MAO-B inhibition: final concentration of tetrazine 10 µM, human MAO-B
# T1 sequence (P27338 1-520): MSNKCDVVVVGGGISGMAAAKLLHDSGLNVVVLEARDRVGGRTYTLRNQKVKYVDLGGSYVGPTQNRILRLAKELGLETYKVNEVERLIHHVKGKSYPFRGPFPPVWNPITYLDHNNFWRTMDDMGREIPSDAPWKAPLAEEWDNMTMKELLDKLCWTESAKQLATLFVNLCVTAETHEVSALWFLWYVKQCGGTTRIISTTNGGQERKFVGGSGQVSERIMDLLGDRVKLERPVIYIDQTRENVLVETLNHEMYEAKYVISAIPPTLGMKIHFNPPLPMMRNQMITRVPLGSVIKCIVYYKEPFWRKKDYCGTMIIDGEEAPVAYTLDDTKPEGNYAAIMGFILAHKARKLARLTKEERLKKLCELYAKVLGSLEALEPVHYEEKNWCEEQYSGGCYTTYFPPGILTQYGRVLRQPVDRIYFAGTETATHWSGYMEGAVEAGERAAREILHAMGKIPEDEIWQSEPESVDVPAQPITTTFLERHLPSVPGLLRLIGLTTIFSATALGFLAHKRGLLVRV
# Procedure: as §1
# cyclooxygenase (COX-1) = cyclooxygenase (COX-1) (Homo sapiens, UniProt P23219); test: Enzyme inhibition study, COX-1; format: biochemical, humans; details: for % COX-1 inhibition: final concentration of tetrazine 10 µM, human COX-1
# Chain of cyclooxygenase (COX-1) (P23219 24-599): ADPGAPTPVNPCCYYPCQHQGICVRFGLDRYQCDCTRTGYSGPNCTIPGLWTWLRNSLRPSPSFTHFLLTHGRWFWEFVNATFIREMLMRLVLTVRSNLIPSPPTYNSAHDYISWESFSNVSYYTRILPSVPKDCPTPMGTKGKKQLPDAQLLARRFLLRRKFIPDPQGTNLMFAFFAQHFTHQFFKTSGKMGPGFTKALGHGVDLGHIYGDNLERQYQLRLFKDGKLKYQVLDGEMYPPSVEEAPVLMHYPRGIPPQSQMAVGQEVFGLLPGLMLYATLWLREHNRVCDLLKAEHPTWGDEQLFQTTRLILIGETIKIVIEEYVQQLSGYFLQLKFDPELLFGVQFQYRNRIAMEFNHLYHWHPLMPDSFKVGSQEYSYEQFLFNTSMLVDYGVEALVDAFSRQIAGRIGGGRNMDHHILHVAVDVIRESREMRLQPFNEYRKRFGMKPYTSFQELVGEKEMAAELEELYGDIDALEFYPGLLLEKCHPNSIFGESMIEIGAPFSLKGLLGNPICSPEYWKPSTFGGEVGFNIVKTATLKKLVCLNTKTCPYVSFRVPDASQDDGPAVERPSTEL
# Procedure: as §1
# Swiss albino mice = test: Maximum tolerated dose (MTD) study in mice, single intravenous dose; format: in vivo; details: 72 hours
# Procedure: (§2) In this Example, groups of Swiss albino mice (an equal number of male and female animals) were subjected to a single dose of tetrazine 2.1 (reference), 2.4, 2.5, 2.7, or 2.10. Different groups were used for different doses. […] Control groups were also used, wherein mice were only administered vehicle (phosphate-buffered saline (PBS) pH 7.4) without tetrazine ("vehicle control").
# (§3) Mice were treated in line with ethical guidelines. […] Environmental controls for the animal room were set to maintain a temperature of 22 to 25°C, humidity of 30-70% RH, and a 12-h light/12-h dark cycle.
# (§4) The dose formulations were prepared as follows. Tetrazine 2.1 (reference), 2.4, 2.5, 2.7, or 2.10 was dissolved in PBS pH 7.4 to prepare separate stock solutions of each tetrazine. […] Further dilutions of the tetrazine stock solutions were done with PBS pH 7.4 to achieve a desired concentration.
# (§5) Mice were dosed on day 1 by intravenously administering the dose formulation (expressed in µmol of tetrazine per kg body weight of the mouse). Thereafter, the mice were observed up to 72 hours post-dose for any signs of mortality. The number of dead mice after 72 hours ("mortality") was then divided by the original number of mice.
# [3] = as above; format: in vivo; details: both sexes, Swiss albino, mouse, in vivo, iv, mice, single intravenous dose, observed up to 72 hours post-dose
# Procedure: as §2, §3, §4, §5
# [4] = test system: calcium channel L-type, dihydropyridine; test: Transporter ligand binding inhibition, calcium channel L-type; parameters: species or system rats; details: for % Calcium channel L-type dihydropyridine inhibition: final concentration of tetrazine 10 µM, rat, ligand binding
# Procedure: as §1
# Chain of acetyl cholinesterase (ACES) (P22303 32-614): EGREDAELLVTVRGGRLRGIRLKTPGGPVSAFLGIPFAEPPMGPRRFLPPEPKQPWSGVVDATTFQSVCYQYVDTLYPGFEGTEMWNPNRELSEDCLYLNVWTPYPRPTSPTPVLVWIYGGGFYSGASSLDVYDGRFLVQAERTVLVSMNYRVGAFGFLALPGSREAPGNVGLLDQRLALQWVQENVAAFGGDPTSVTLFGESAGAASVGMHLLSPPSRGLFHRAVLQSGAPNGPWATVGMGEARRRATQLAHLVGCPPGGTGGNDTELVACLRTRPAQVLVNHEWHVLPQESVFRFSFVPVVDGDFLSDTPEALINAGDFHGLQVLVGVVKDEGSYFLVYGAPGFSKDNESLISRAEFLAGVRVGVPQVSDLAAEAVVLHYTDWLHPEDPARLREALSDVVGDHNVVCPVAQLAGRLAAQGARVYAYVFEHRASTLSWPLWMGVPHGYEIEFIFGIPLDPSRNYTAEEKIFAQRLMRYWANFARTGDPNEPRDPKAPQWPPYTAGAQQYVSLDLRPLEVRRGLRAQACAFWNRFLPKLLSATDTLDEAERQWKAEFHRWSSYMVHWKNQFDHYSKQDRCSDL
Compound,% ACES inhibition [1],% MAO-B inhibition [2],% COX-1 inhibition (cyclooxygenase (COX-1)),MTD at 72 h [3],% Calcium channel L-type dihydropyridine inhibition [4],other results
"O=C(O)CN(CCN(CC(=O)O)CC(=O)Nc1ccc(-c2nnc(-c3ccccn3)nn2)nc1)CC(=O)O [2.4, 2,2'-((2-((Carboxymethyl)(2-oxo-2-((6-(6-(pyridin-2-yl)-1,2,4,5-tetrazin-3-yl)pyridin-3-yl)amino)ethyl)amino)ethyl)azanediyl)diacetic acid]",11%,20%,53%,≥ 57 µmol/kg,10%,No. of mortality vs. total no. of mice (Swiss albino mice; 19 µmol/kg i.v. single dose): 0 out of 6; No. of mortality vs. total no. of mice (Swiss albino mice; 57 µmol/kg i.v. single dose): 0 out of 6; No. of mortality vs. total no. of mice (Swiss albino mice; 95 µmol/kg i.v. single dose): 4 out of 4
"O=C([O-])CN(CCN(CC(=O)[O-])CC(=O)Nc1ccc(-c2nnc(-c3ccccn3)nn2)nc1)CC(=O)[O-].[Ca+2].[Na+] [2.5, Calcium sodium 2-({2-[bis(carboxylatomethyl)amino]ethyl)[({6-[6-(pyridin-2-yl)-1,2,4,5-tetrazin-3-yl]pyridin-3-yl}carbamoyl)methyl]amino)acetate]",-1%,9%,18%,–,1%,No. of mortality vs. total no. of mice (Swiss albino mice; 85 µmol/kg i.v. single dose): 0 out of 6; No. of mortality vs. total no. of mice (Swiss albino mice; 171 µmol/kg i.v. single dose): 0 out of 6; No. of mortality vs. total no. of mice (Swiss albino mice; 512 µmol/kg i.v. single dose): 0 out of 6
"O=C(O)CCOCCOCCOCCC(=O)Nc1ccc(-c2nnc(-c3ccccn3)nn2)nc1 [2.7, 3-(2-(2-(3-Oxo-3-((6-(6-(pyridin-2-yl)-1,2,4,5-tetrazin-3-yl)pyridin-3-yl)amino)propoxy)ethoxy)ethoxy)propanoic acid]",22%,38%,37%,–,-17%,No. of mortality vs. total no. of mice (Swiss albino mice; 103 µmol/kg i.v. single dose): 0 out of 6; No. of mortality vs. total no. of mice (Swiss albino mice; 207 µmol/kg i.v. single dose): 0 out of 6; No. of mortality vs. total no. of mice (Swiss albino mice; 621 µmol/kg i.v. single dose): 0 out of 6
"O=C(O)CN(CC(=O)O)CC(=O)Nc1ccc(-c2nnc(-c3ccccn3)nn2)nc1 [2.10, 2,2'-((2-Oxo-2-((6-(6-(pyridin-2-yl)-1,2,4,5-tetrazin-3-yl)pyridin-3-yl)amino)ethyl)azanediyl)diacetic acid]",5%,22%,14%,–,-3%,No. of mortality vs. total no. of mice (Swiss albino mice; 118 µmol/kg i.v. single dose): 0 out of 6; No. of mortality vs. total no. of mice (Swiss albino mice; 177 µmol/kg i.v. single dose): 0 out of 6; No. of mortality vs. total no. of mice (Swiss albino mice; 236 µmol/kg i.v. single dose): 0 out of 6
"O=C(O)CN1CCN(CC(=O)O)CCN(CC(=O)NCCOCCOCCOCCOCCOCCOCCOCCOCCOCCOCCOCCNC(=O)CCCC(=O)Nc2ccc(-c3nnc(-c4ccccn4)nn3)nc2)CCN(CC(=O)O)CC1 [compound 2.1, 2,2',2''-(10-(2,40,44-Trioxo-44-((6-(6-(pyridine-2-yl)-1,2,4,5-tetrazin-3-yl)pyridine-3-yl)amino)-6,9,12,15,18,21,24,27,30,33,36-undecaoxa-3,39-diazatetratetracontyl)-1,4,7,10-tetraazacyclododecane-1,4,7-triyl)triacetic acid, reference compound]",44%,36%,59%,~39 µmol/kg,44%,"inhibition of acetyl cholinesterase (ACES), in words ([1]; statement in description): strongly inhibits; inhibition of monoamine oxidase (MAO-B), in words ([2]; statement in description): strongly inhibits; inhibition of cyclooxygenase (COX-1), in words (cyclooxygenase (COX-1); statement in description): strongly inhibits; No. of mortality vs. total no. of mice (Swiss albino mice; 8 µmol/kg i.v. single dose): 0 out of 6; No. of mortality vs. total no. of mice (Swiss albino mice; 39 µmol/kg i.v. single dose): 0 out of 6; No. of mortality vs. total no. of mice (Swiss albino mice; 78 µmol/kg i.v. single dose): 4 out of 6; inhibition of calcium channel L-type, dihydropyridine, in words ([4]; statement in description): strongly inhibits"
